Like-named read-outs stand apart in the source and are kept apart here.
Columns and labels:
10–15 BRD4-NUT = assay: Cell proliferation assay (Alamar readout), 10–15; format: cell-based, human; conditions: Homo sapiens, 96h, read-out: geomean GI50
Procedure: (§1) The NUT Carcinoma cell line Ty-82 was purchased from JCRB Japan No. 1330 and cultivated in RPMI 1640 supplemented with 10% fetal calf serum (FCS). The NC cell lines 10–15, 14169 and 10326 were in-licensed from Christopher French, Brigham & Womens Hospital, Boston, and were cultivated in DMEM supplemented with glutamax and 10% FCS.
(§2) Viability assays were performed on 96-well flat-bottom microtiter plates and incubated with Alamar Blue solution (Invitrogen, Carlsbad, US-CA). The effects of drug combinations were analysed using the Bliss Independence Model.
(§3) Dose response curves (96h cell proliferation assay - Alamar readout) on four NC cell lines with BET inhibitor BI 894999. Yellow bar: readout t zero (before adding of compound). Green bar: DMSO control (max proliferation).
(§4) Dose response curves (96h cell proliferation assay - Alamar readout) on four NC cell lines with multiple BET inhibitors.

[1] = system: 10326 xenograft (BRD3-NUT); assay: 10326 NC xenograft model; format: in vivo; conditions: 2 mg/kg BI 894999
Description: (§5) Mice were group-housed (8–10 mice per cage) under pathogen-free and controlled environmental conditions (21 ± 1.5 C temperature, 55 ± 10% humidity) in an AAALAC accredited facility and handled according to the institutional, governmental and European Union guidelines (Austrian Animal Protection Laws, GV-SOLAS and FELASA guidelines). Animal studies were approved by the internal ethics committee and the local government committee. Mice were 6- to 8-week-old female CIEA NOG purchased from Taconic, Denmark (NOD.Cg-Prkdc^scid Il2rg^tm1Sug/JicTac). 5 × 10^6 NC tumour cells were injected subcutaneously into the right flank of the mice (1 site per mouse). Mice were randomly distributed between the treatment and the vehicle control when tumours were well established and had reached volumes of 100–150 mm^3. Compounds were suspended in 0.5% Natrosol and administered once daily intra-gastral by gavage needle. Tumour diameters were measured three times a week with a calliper. […] Within each subtopic the p-values of the efficacy parameters were adjusted for multiple comparisons according to Bonferroni–Holm. The p-values of the tolerability parameter remained unadjusted in order not to overlook a possible adverse effect. The level of significance was fixed at α = 5%. An adjusted p-value of less than 0.05 was considered to show a statistically significant difference between the groups. The statistical evaluation was prepared using the software Graph Pad Prism.

10326 BRD3-NUT = assay: Cell proliferation assay (Alamar readout), 10326; format: cell-based, human; conditions: Homo sapiens, 96h, read-out: geomean GI50
Procedure: as §1, §2, §3, §4

NC cell lines = assay: Cell proliferation assays, all four NC lines (summary); format: cell-based, human
Procedure: as §1, §2

[2] = system: 10–15 xenograft (BRD4-NUT); assay: 10–15 NC xenograft model; format: in vivo, mice; conditions: 2 mg/kg BI 894999
Description: as §5

[3] = Plasma pharmacokinetics in patients (NCT02516553); format: in vivo
Procedure: Schedule B (NCT02516553): daily oral treatment from Day 1 to Day 14 at 2.5 mg/day followed by a week-off in 3-week cycles. Schedule C (NCT02516553): one week-on, one week-off treatment, repeated every two weeks in 4-week cycles with, at each treatment week, a loading dose (6 mg) on Day 1 followed by a maintenance dose (3 mg per day) on the following 6 days.

HEXIM1 = HEXIM1 modulation in mouse blood; format: in vivo; conditions: mice; 2 mg/kg p.o.
Description: Cmax and PD modulation of Ty-82 tumors treated with BI 894999.

[4] = GI50, depending on the NC cell line

CNc1nc(-c2nc3ccc(N4CCN(C)CC4)cc3n2Cc2ccccc2)cn2c(C)nnc12 [BI 894999]
GI50 (10–15 BRD4-NUT): 1.7 nM | TGI [1]: 99% | GI50 (10326 BRD3-NUT): 1.2 nM | fold more potent than JQ1 and GSK525762 (NC cell lines; [4]): 40–60 fold | more potent than the dual BET/p300 inhibitor NEO2734 (NC cell lines; [4]): 10–20 | GI50 (NC cell lines; Homo sapiens, TY82, Ty-82, 10–15, 14169, 10326, read-out: GI50 (geomean), range over all NC lines): 0.9 to 2.6 nM | TGI [2]: 40% | Cmax ([3]; Schedule C, 6 mg loading/3 mg maintenance, Day 1, 19 patients, read-out: maximal plasma concentration (mean Cmax)): ~20 nM | Cmax ([3]; human, plasma, oral, 2.5 mg, Schedule B, 2.5 mg daily, Day 1, 55 patients, read-out: maximum plasma concentration (mean Cmax)): 5 nM | Cmax ([3]; human, plasma, oral, 6 mg, Schedule C, 6 mg loading/3 mg maintenance, Day 1, 19 patients, read-out: maximal plasma concentration (mean Cmax)): 19 nM | HEXIM1 modulation in the blood (HEXIM1): ~ 2 fold
